Experimental findings from patent US20040161781A1, “Compositions and methods for identifying thymidylate synthase modulators” (priority 2002, published 2004) are described below.

Format in all cases: cell-based, human
The test system of experiment [1] is thymidylate synthase (TS). Put plainly: Luciferase induction in H630 cells containing pG3E1-2TBE-Neo by acyl homoserine lactone. The conditions noted are these: 18 h. From the text:
FIG. 7. Induction of luciferase as a function of 3-oxo-6-hexanoyl-homoserine lactone concentrations. H630 cells containing pG3E1-2TBE-Neo were exposed to the indicated concentrations of 3-oxo-6-hexanoyl homoserine lactone for 18 hrs then analyzed for luciferase activity.
FIG. 8. Comparison of 5-fluorouracil (5-FU) and 3-oxo-hexanoyl-homoserine lactone on induction of luciferase. H630 cells containing pG3E1-2TBE-Neo were exposed to the indicated concentrations of each compound for 18 hrs and analyzed for luciferase activity.
H630 cells containing pG3E1-2TBE-Neo were exposed to the indicated concentrations of 3-oxo-6-hexanoyl homoserine lactone for 18 h then analyzed for luciferase activity (FIG. 7).

The test system of experiment [2] is thymidylate synthase (TS). The experiment in a line: Down-regulation of TS in H630 cells treated with acyl-homoserine lactones (Western blotting). The conditions noted are these: overnight (approximately 16 hours). The source says:
FIG. 6. A representation of the ability of acyl homoserine lactones to down-regulate TS in H630 cells.
The signaling molecules produced by the rTS signaling pathway cause a decrease in the amount of TS found in cells. These signaling molecules can simulate the effects of the compound 3-oxo-hexanoyl homoserine lactone in activating the receptor for this compound when it is present in a recombinant bacteria. […] This hypothesis was validated by the results of an experiment portrayed in FIG. 6. Accordingly, the down-regulation of TS in H630 (human colon cancer) cells treated with acyl-homoserine lactones was tested. Cells growing in RPMI 1640 culture medium, supplemented with 10% dialyzed fetal bovine serum at 37° C. in an atmosphere of 95:5 air:CO2. The compounds with the structures shown were added to the cells and allowed to incubate overnight (approximately 16 hours). The cells were extracted and TS measured by Western blotting as described. The compounds from top to bottom are: (1) 3-hydroxy butanoyl homoserine lactone, (2) butanoyl homoserine lactone; (3) 3-oxo-hexanoyl homoserine lactone; (4) d, 1-hexanoyl homoserine lactone, and (5) 1-homoserine lactone. Tubulin is shown as a loading standard.

In experiment [3] the test system is thymidylate synthase (TS). The experiment in a line: Luciferase assay in stably transfected H630-C6 cells (pG3E1-2TBE-Neo). The conditions noted are these: H630-C6 cells. The procedure:
FIGS. 3a-3j. RLU production in H630-C6 cells in response to TS inhibitors. H630-C6 cells were evaluated for luciferase activity in response to treatment with the indicated compounds. The cells were exposed to the compounds at the indicated concentrations for 18 hr and luciferase assays were then performed according to the manufacturer's instructions. The mean values of triplicates or quadruplicates are shown along with the standard derivations.
This example describes the stable transfection of cells with the DNA construct of the present invention. To facilitate selection of stable transformants, we added a neomycin-resistance gene to the pG3E1-2TBE (FIG. 1) to generate a new plasmid termed pG3E1-2TBE-Neo as follows. For stable transfection, pG3E1-2TBE-Neo was linearized at the ampicillin resistance gene with Ase I and was introduced into H630 cells as described above. At 24 hrs post-transfection, the cells were exposed to 400 μg/ml of G418 for two weeks. Individual clones were picked at that time and screened for their ability to induce luciferase in response to treatment with 5-FU, a known TS inhibitor. Following selection with G418 and evaluation for changes in luciferase activity after exposure of the cells to 5-FU, the cloned subline H630/pG3E1-2TBE-Neo-L1-2-C6 (H630-C6) was chosen for further study.
The stably transfected H630-C6 cell line was maintained in RPMI 1640 plus 10% dialyzed FBS and 400 μg/ml of geneticin (G418). For luciferase assays, 2×10^4 cells were seeded in each well of a 24-well plate in RPMI 1640 medium plus 10% FBS without G418 and were allowed to attach at least six hr, followed by drug exposure overnight (approximately 18 hr). The cells were then washed with PBS (137 mM NaCl, 2.7 mM KCl, 4.3 mM Na2HPO4, 1.4 mM KH2PO4, pH 7.4), lysed with Passive Lysis Buffer (Promega, Madison) and assayed for luciferase activity using the Luciferase Assay System (Promega, Madison, Wis.) according to the manufacturer's instructions. Relative light units (RLU) were measured with a Lumat LB 9501 luminometer (EG & G Berthold, Wildbad, Germany).
To test H630-C6 as a tool to identify TS modulators three different classes of compounds, i.e., specific or predominantly specific TS inhibitors, agents that inhibit folate pathways or inhibit TS as well as having other targets, and agents that act through TS unrelated sites of action were evaluated for their ability to induce changes in luciferase activity.

Experiment [4] concerns thymidylate synthase (TS). The experiment in a line: Evaluation of TS expression by Western blotting in H630-C6 cells. The method, then: FIGS. 4a and 4b. Evaluation of TS expression by Western blotting. […] The cells were harvested for Western blots.
This example describes the relationship between TS levels and luciferase production by various known TS inhibitors. Western blotting was performed as previously described (Dolnick and Black, 1996). Briefly, H630-C6 cells were washed with PBS and extracted with RIPA buffer. 10 μg of total protein was resolved by electrophoresis in a 10% SDS-PAGE and was blotted onto a PVDF membrane (Immobilon-P, Millipore, Bedford, Mass.). The membrane was hybridized with rabbit polyclonal antibody against TS (a gift from Dr. Edward Chu, VA Cancer Center, Yale University, West Haven, Conn.) diluted in SuperBlock Blocking Buffer (Pierce, Rockford, Ill.) plus 0.25% Tween 20 for one hour and hybridized with HRP-linked anti-rabbit secondary antibody (Jackson Laboratories) for an additional one hour. The membrane was detected with SuperSignal West Dura Extended Duration Substrate (Pierce, Rockford, Ill.) and was visualized by exposing the blot to Kodak XAR-5 film. […] The resulting signal was detected as described above.
The induction of luciferase activity depends upon the ability to reduce the amount of endogenous TS bound to the TBEs in the recombinant luciferase transcripts. Dissociation of TS from the luciferase reporter mRNA is expected to be accompanied by the removal of TS from TBEs located in other mRNAs as well, such as endogenous TS mRNA. Therefore, an increase in TS is expected to accompany the increase in luciferase. To verify whether a translational mechanism is involved we evaluated the levels of TS from cells treated with the compounds described above by Western blotting.

A further experiment has as its system TS mRNA. Put plainly: Evaluation of TS mRNA expression by RT-PCR in H630-C6 cells. The conditions noted are these: 18 hr exposure. The procedure: FIGS. 5a and 5b. Evaluation of TS mRNA expression by RT-PCR. H630-C6 cells were exposed to the indicated compounds for 18 hr and total RNA was obtained for RT-PCR. Results are shown for 35 cycles of amplification. […] Similar results were obtained at lower cycles (data not shown).
This example describes the TS mRNA levels in the presence of various TS inhibitors. RNA was prepared using an RNAqueous kit (Ambion, Austin, Tex.). Reverse transcription was done using a Cells-to-cDNA kit (Ambion, Austin, Tex.). Polymerase chain reaction (PCR) was performed as described previously (Dolnick et al., 1992). Primers used for TS mRNA are 5′-TTTGGACAGCCTGGGATTCTC-3′ (Sense—SEQ ID NO:6) and 5′-AAAGCACCCTAAACAGCCATT-3′ (antisense—SEQ ID NO:7), generated a 600-bp PCR product. Primers used for β-actin are 5′-CAGCTCACCATGGATGATGATA-3′ (sense—SEQ ID NO:8) and 5′-CCA GAC GCA GGA TGG CAT-3′ (antisense—SEQ ID NO:9), generated a 543-bp PCR product. The PCR cycling condition used was: 95° C. for 30 seconds, 60° C. for 30 seconds, 72° C. for 1 minute, repeated for 25, 30 and 35 cycles (for TS) or 20, 25 and 30 cycles (for β-actin). Product formation was evaluated by ethidium bromide staining and was resolved by electrophoresis in 1.5% agarose gels.

Entries after “also recorded” stand apart in the source; their conditions may differ. *1 amine or outer side, *2 acyl side, *3 side chain or, on linkers, in order; H or OH if unused. Where a SMILES comes first, the peptide text is derived from it. Bridges are numbered along the chain shown (N, C = ends). Roman numbers before positions name the chains, in order. [ ]: non-standard residue; d: D form. Actinocin(9to1) = Cc1c2oc3c(C)ccc(C(=O)[*:1])c3nc-2c(C(=O)[*:2])c(N)c1=O; NMeV = CN[C@H](C(=O)O)C(C)C; Sar = CNCC(=O)O

In the case of `CCCC(=O)CC(=O)N[C@H]1CCOC1=O` [3-oxo-hexanoyl homoserine lactone], the “luciferase activity as a function of concentration” value in experiment [1] is “increased the luciferase activity”. Moreover, the “down-regulation of TS (Western blotting), in words” value in experiment [2] is “most active of all the compounds shown”.

For the compound `Cc1c2oc3c(C)ccc(C(=O)N[C@@H]4C(=O)N[C@H](C(C)C)C(=O)N5CCC[C@H]5C(=O)N(C)CC(=O)N(C)[C@@H](C(C)C)C(=O)O[C@@H]4C)c3nc-2c(C(=O)N[C@@H]2C(=O)N[C@H](C(C)C)C(=O)N3CCC[C@H]3C(=O)N(C)CC(=O)N(C)[C@@H](C(C)C)C(=O)O[C@@H]2C)c(N)c1=O` [Act D, actinomycin D] (I: T[dV]P[Sar][NMeV] / II: T[dV]P[Sar][NMeV]; ester I:1-I:C, II:1-II:C; linker I:N-II:N via Actinocin(9to1)), in experiment [3] (50 μM, 18 hr), the increase of luciferase entry was “up to 3.5 fold”. Also, in experiment [3] (18 hr exposure), the “change in luciferase activity (RLU), in words” value is on record as “concentration-dependent increase of RLU”. The “TS protein level by Western blotting” value in experiment [4] (H630-C6 cells, 18 hr treatment) is given as “no increase of TS protein; also recorded: did not induce TS levels”. Also, the “TS levels as a function of time (time course)” value in experiment [4] (by 24 hr, data not shown) is reported as “dropped”. The “TS mRNA level by RT-PCR” value in the experiment with TS mRNA is given as “not altered”.
